Earlier results as cited in US20050048573A1, “PDE5A crystal structure and uses” (Plexxikon, Inc., priority 2003, published 2005).

Target: PDE5 (Bos taurus, UniProt Q28156)
Conditions: allosteric sites; read-out: KD of PDE5 for binding cGMP in the allosteric sites

- Kd: ~200 nM
Structure (SMILES): Nc1nc2c(ncn2[C@@H]2O[C@@H]3COP(=O)(O)O[C@H]3[C@H]2O)c(=O)[nH]1 [cGMP]
